Drawing on ChEMBL document CHEMBL5131477, “Design, synthesis and biological evaluation of 1,3,4-triazole-3-acetamide derivatives as potent neuraminidase inhibitors” (Bioorg Med Chem Lett, 2022), this text covers IC50 for twelve molecules.

A short description of the test: Inhibition of Influenza A virus H5N1 Neuraminidase.
As to `COc1ccc(OC)c(NC(=O)CSc2nnc(-c3ccco3)[nH]2)c1`, 55.3 µM corresponded to half-maximal inhibition (IC50).

Regarding `O=C(CSc1nnc(-c2ccco2)[nH]1)NCCc1cccc(F)c1`, half-maximal inhibition (IC50) was put at 8.06 µM. Against the preceding molecule, the IC50 is about 6.9-fold lower. Under `O=C(CSc1nnc(-c2ccco2)[nH]1)Nc1cccc(Cl)c1` stands 4.33 µM. Under `COc1cccc(NC(=O)CSc2nnc(-c3ccco3)[nH]2)c1` stands 0.24 µM; under `COc1cc(F)ccc1NC(=O)CSc1nnc(-c2ccco2)[nH]1`, 1.8 µM. Under `COc1ccc(C(=O)NNC(=O)CSc2nnc(-c3ccco3)[nH]2)cc1` stands 12.2 µM; under `COc1ccc(NC(=O)CSc2nnc(-c3ccco3)[nH]2)cc1OC`, 1.43 µM. Regarding `CCc1ccc(NC(=O)CSc2nnc(-c3ccco3)[nH]2)cc1`, the IC50 (usually the point on the concentration scale where inhibition reaches its midpoint) turned out to be 0.11 µM. This IC50 lies about 13-fold lower than the previous one.

With `COc1ccc(C)cc1NC(=O)CSc1nnc(-c2ccco2)[nH]1`, inhibition was half-maximal at 28.5 µM (IC50).

As to `COc1cccc(CCNC(=O)CSc2nnc(-c3ccco3)[nH]2)c1`, 9.04 µM corresponded to half-maximal inhibition (IC50). Under `O=C(CSc1nnc(-c2ccco2)[nH]1)NCCc1ccc2c(c1)OCO2` stands 1.67 µM; under `CCC(CC)O[C@@H]1C=C(C(=O)O)C[C@H](N)[C@H]1NC(C)=O` [OSELTAMIVIR CARBOXYLATE], 0.1 µM.
